# Data reported in patent US11802120B2, “Fused cyclic urea derivatives as CRHR2 antagonist” (RaQualia Pharma Inc., priority 2018, dated 2023).
# Molecular target: T1, human CRHR2-alpha (Homo sapiens, UniProt Q13324)
# T1 sequence (Q13324 1-411): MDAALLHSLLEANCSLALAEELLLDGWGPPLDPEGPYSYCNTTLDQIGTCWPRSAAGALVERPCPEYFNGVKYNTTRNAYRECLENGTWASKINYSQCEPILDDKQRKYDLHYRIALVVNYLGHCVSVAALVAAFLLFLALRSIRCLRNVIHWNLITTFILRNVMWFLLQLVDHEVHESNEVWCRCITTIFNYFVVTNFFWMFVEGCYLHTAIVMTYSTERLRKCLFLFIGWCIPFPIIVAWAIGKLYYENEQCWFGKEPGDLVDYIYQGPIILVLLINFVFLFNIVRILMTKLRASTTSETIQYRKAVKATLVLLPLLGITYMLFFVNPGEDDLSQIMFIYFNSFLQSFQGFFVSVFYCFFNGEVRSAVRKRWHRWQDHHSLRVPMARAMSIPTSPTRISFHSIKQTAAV
# Assay: cAMP functional assay for human CRHR2 (LANCE Ultra cAMP, TR-FRET)
# Format: cell-based
# Settings: CHO-K1 cells expressing human CRHR2-alpha, agonist human urocortin2 at EC80, cAMP; read-out: IC50 against CRHR2
# Procedure, shortened: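 Inhibition of agonist-driven cAMP was assessed in recombinant CHO-K1 cells at 25° C, using 30 min compound pretreatment and 30 min stimulation with EC80 human urocortin2 (CRHR2) or CRF (CRHR1). IC50 came from dose-response fitting.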
row,Compound,IC50 [nM]
1,"O=C(N[C@H]1CC[C@H](Cn2c(=O)n(-c3ccc(N[C@@H]4CCOC4)nc3)c3ccccc32)CC1)c1cc(Cl)cnc1C(F)(F)F [Example 300, 5-chloro-N-((1R,4r)-4-((2-oxo-3-(6-(((R)-tetrahydro-furan-3-yl)amino)pyridin-3-yl)-2,3-dihydro-1H-benzo [d]imidazol-1-yl)methyl)cyclohexyl)-2-(trifluoro-methyl)nicotinamide]",< 300
2,"CCC(=O)Nc1cc(C)c(-n2c(=O)n(C[C@H]3CC[C@H](NC(=O)c4cc(Cl)cnc4C(F)F)CC3)c3ccccc32)cn1 [Example 560, 5-chloro-2-(difluoromethyl)-N-((1r,4r)-4-((3-(4-methyl-6-propionamidopyridin-3-yl)-2-oxo-2,3-dihydro-1H-benzo [d]imidazol-1-yl)methyl)cyclo-hexyl)nicotinamide]",< 300
3,"CNc1ccc(-n2c(=O)n(C[C@H]3CC[C@H](NC(=O)c4cc(Cl)cnc4C)CC3)c3ccc(F)cc32)cn1 [Example 625, 5-chloro-N-((1r,4r)-4-((5-fluoro-3-(6-(methylamino)pyridin-3-yl)-2-oxo-2,3-dihydro-1H-benzo[d]imidazol-1-yl)methyl)cyclohexyl)-2-methylnicotinamide]",< 300
4,"Cc1ncc(Cl)cc1C(=O)N[C@H]1CC[C@H](Cn2c(=O)n(C3Cc4ccc(Br)cc4C3)c3ccncc32)CC1 (stereo partly shown) [Example 211, N-((1r,4r)-4-((1-(5-bromo-2,3-dihydro-1H-inden-2-yl)-2-oxo-1H-imidazo[4,5-c]pyridin-3(2H)-yl)methyl)cyclohexyl)-5-chloro-2-methylnicotinamide]",< 300
5,"Cn1cnc2ccc(-n3c(=O)n(C[C@H]4CC[C@H](NC(=O)c5cc(Cl)cnc5C(F)F)CC4)c4ccccc43)cc21 [Example 406, 5-chloro-2-(difluoromethyl)-N-((1r,4r)-4-((3′-methyl-2-oxo-3′H-[1,5′-bibenzo[d]imidazol]-3(2H)-yl)methyl)cyclohexyl) nicotinamide]",< 300

# The remaining lines, values ahead:
row,IC50 [nM],Compound
1,< 300,"CCn1nc2ccccc2c1C(=O)N[C@H]1CC[C@H](Cn2c(=O)n(-c3ccc(C(C)O)cc3)c3ccccc32)CC1 (stereo partly shown) [Example 42, 2-ethyl-N-((1r,4r)-4-((3-(4-(1-hydroxyethyl)phenyl)-2-oxo-2,3-dihydro-1H-benzo[d]imidazol-1-yl)methyl)cyclohexyl)-2H-indazole-3-carboxamide]"
2,< 300,"Cc1ncc(Cl)cc1C(=O)N[C@H]1CC[C@H](Cn2c(=O)n(-c3ccc(NCC(F)(F)F)nc3)c3ccccc32)CC1 [Example 436, 5-chloro-2-methyl-N-((1r,4r)-4-((2-oxo-3-(6-((2,2,2-trifluoro-ethyl)amino)pyridin-3-yl)-2,3-dihydro-1H-benzo[d]imidazol-1-yl)methyl)cyclohexyl) nicotinamide]"
3,< 300,"O=C(Cn1c(=O)n(C[C@H]2CC[C@H](NC(=O)c3cc(Cl)ccc3Cl)CC2)c2ccccc21)c1ccccc1 [Example 287, 2,5-dichloro-N-((1r,4r)-4-((2-oxo-3-(2-oxo-2-phenylethyl)-2,3-dihydro-1H-benzo[d]imidazol-1-yl)methyl)cyclo-hexyl)benzamide]"
4,< 300,"O=C(N[C@H]1CC[C@H](Cn2c(=O)n(-c3ccnc(-n4ccnc4)c3)c3ccccc32)CC1)c1cc(Cl)cnc1C(F)F [Example 570, N-((1r,4r)-4-((3-(2-(1H-imidazol-1-yl)pyridin-4-yl)-2-oxo-2,3-dihydro-1H-benzo [d]imidazol-1-yl)methyl)cyclohexyl)-5-chloro-2-(difluoromethyl)nicotinamide]"
5,< 300,"Cc1cc2cc(-n3c(=O)n(C[C@H]4CC[C@H](NC(=O)c5cc(Cl)cnc5C(F)F)CC4)c4ccccc43)cnc2[nH]1 [Example 673, 5-chloro-2-(difluoromethyl)-N-((1r,4r)-4-((3-(2-methyl-1H-pyrrolo[2,3-b]pyridin-5-yl)-2-oxo-2,3-dihydro-1H-benzo[d]imidazol-1-yl)methyl)cyclohexyl)nicotinamide]"
